This data set is described as follows: Rat serum pharmacokinetics after 1.5-hour IV infusion. Particulars: two-compartment model; for Cmax / clearance: 1.5-hour IV infusion in 0.9% saline, dose (mg/kg) differs per compound; for clearance: read-out: Clearance (free drug clearance) (converted); for pharmacokinetic profile: […] IV infusion in 0.9% saline, total dose 2, 5, 10 or 20 mg/kg. The class given is in vivo. As to the method:
In the experiment depicted in Table 7, above, rat serum pharmacokinetics of selected inhibitor compounds was evaluated after 1.5-hour IV infusion of 1.5 ml solution of corresponding efflux pump inhibitor in 0.9% saline. Depending on the concentration used the total infused dose was 2, 5, 10 or 20 mg/kg. A two-compartment model was used to fit the data and calculate PK parameters.

Molecules are shown by their SMILES.

`CC(C)c1ccc(NC(=O)[C@H](CCc2ccccc2)NC(=O)[C@@H](N)CC(=O)N(CCN)CCN)cc1` [Compound 91]: the Cmax amounted to 2670 ng/mL and the clearance was 98.2 mL/min/kg.

As to `NCCN(CCN)C(=O)C[C@H](N)C(=O)N[C@@H](CCc1ccccc1)C(=O)Nc1cccc(C(F)(F)F)c1` [Compound 90], the highest concentration (Cmax) came to 1220 ng/mL and the clearance is 103 mL/min/kg.

In the case of `NCCN(CCN)C(=O)C[C@H](N)C(=O)NCC(=O)N(Cc1ccc(C(F)(F)F)cc1)c1cnc2ccccc2c1` [Compound 357, 3-[(1S)-2-[bis(2-azaniumylethyl)carbamoyl]-1-{[({[4-(trifluoromethyl)phenyl]methyl}carbamoyl)methyl]carbamoyl}ethan-1-aminium]quinolin-1-ium tetrachloride], the Cmax was 660 ng/mL and the clearance was 145 mL/min/kg.

Consider `CCOc1c(F)cc(NC(=O)[C@H](CCc2ccccc2)NC(=O)[C@@H](N)CC(=O)N(CCN)CCN)cc1F.Cl.Cl.Cl` [Compound 352, (1S)-2-[bis(2-azaniumylethyl)carbamoyl]-1-{[(1S)-1-[(4-ethoxy-3,5-difluorophenyl)carbamoyl]-3-phenylpropyl]carbamoyl}ethan-1-aminium trichloride], for which the concentration peaked (Cmax) at 2440 ng/mL and the clearance is 177 mL/min/kg.

As for `CC(C)Oc1ccc(NC(=O)[C@H](CCc2ccccc2)NC(=O)[C@@H](N)CC(=O)N(CCN)CCN)cc1` [Compound 214], the highest concentration (Cmax) stood at 1540 ng/mL and the clearance is 92.2 mL/min/kg.

For `Cc1cc(CNC(=O)[C@H](CCc2ccccc2)NC(=O)[C@@H](N)CC(=O)N(CCN)CCN)c(C(F)(F)F)o1` [Compound 67], the concentration peaked (Cmax) at 2980 ng/mL and the clearance was 51.7 mL/min/kg.

`Cl.Cl.Cl.Cl.NCCN(CCN)C(=O)CC[C@H](N)C(=O)N[C@H](Cc1ccc(OC(F)(F)F)cc1)C(=O)Nc1cnc2ccccc2c1` [Compound 31, 3-[(1S)-3-[bis(2-azaniumylethyl)carbamoyl]-1-{[(1R)-1-carbamoyl-2-[4-(trifluoromethoxy)phenyl]ethyl]carbamoyl}propan-1-aminium]quinolin-1-ium tetrachloride]: the Cmax was found to be 21900 ng/mL and the clearance is 30 mL/min/kg.

On to `NCCN(CCN)C(=O)C[C@H](N)C(=O)N[C@@H](CCc1ccccc1)C(=O)Nc1ccc2cnccc2c1` [Compound 49], for which the highest level (Cmax) was 2390 ng/mL and the clearance is 70.2 mL/min/kg.

Consider `CCCc1ccccc1NC(=O)[C@H](CCc1ccccc1)NC(=O)[C@@H](N)CC(=O)N(CCN)CCN` [Compound 271], for which the highest level (Cmax) was 340 ng/mL and the clearance is 78.5 mL/min/kg.

For the compound `Cl.Cl.Cl.Cl.NCCN(CCN)CCC[C@H](N)C(=O)N[C@H](CCc1ccccc1)C(=O)Nc1cnc2ccccc2c1` [Compound 46, 3-[(1S)-4-[bis(2-azaniumylethyl)amino]-1-{[(1R)-1-carbamoyl-3-phenylpropyl]carbamoyl}butan-1-aminium]quinolin-1-ium tetrachloride], the concentration peaked (Cmax) at 4000 ng/mL, the clearance is 13.5 mL/min/kg and the pharmacokinetic profile entry is on record as “particularly attractive pharmacokinetic profiles”.

In the case of `CCOc1ccc(NC(=O)[C@H](CCc2ccccc2)NC(=O)[C@@H](N)CC(=O)N(CCN)CCN)cc1` [Compound 85], the highest concentration (Cmax) is 13900 ng/mL and the clearance was 50 mL/min/kg.

With `Cl.Cl.Cl.Cl.N[C@@H](CCC(=O)N1C[C@H](N)[C@@H](N)C1)C(=O)N[C@H](CCc1ccccc1)C(=O)Nc1cnc2ccccc2c1` [Compound 41, 3-[(1S)-1-{[(1R)-1-carbamoyl-3-phenylpropyl]carbamoyl}-4-[(3S,4S)-3,4-diazaniumylpyrrolidin-1-yl]-4-oxobutan-1-aminium]quinolin-1-ium tetrachloride], the Cmax is 8100 ng/mL and the clearance was 45.3 mL/min/kg.

Take `NCCN(CCN)C(=O)C[C@H](N)C(=O)N[C@@H](CCc1ccccc1)C(=O)NCc1ccc(OC2CCOCC2)cc1` [Compound 133]: the concentration peaked (Cmax) at 1270 ng/mL and the clearance is 88.3 mL/min/kg.

`Cl.Cl.Cl.Cl.NCCN(CCN)C(=O)C[C@H](N)C(=O)NCC(=O)N[C@@H](CCc1ccccc1)C(=O)Nc1cnc2ccccc2c1` [Compound 348, 3-[(1S)-2-[bis(2-azaniumylethyl)carbamoyl]-1-[({[(1S)-1-carbamoyl-3-phenylpropyl]carbamoyl}methyl)carbamoyl]ethan-1-aminium]quinolin-1-ium tetrachloride]: the Cmax turned out to be 2200 ng/mL and the clearance was 328 mL/min/kg.

As for `CC(C)Oc1ccc(CNC(=O)[C@H](CCc2ccccc2)NC(=O)[C@@H](N)CC(=O)N(CCN)CCN)cc1` [Compound 237], the concentration peaked (Cmax) at 1260 ng/mL and the clearance is 70.8 mL/min/kg.

Consider `Cl.Cl.Cl.Cl.NCCN(CCN)C(=O)CC[C@H](N)C(=O)N[C@H](CCc1ccccc1)C(=O)Nc1cnc2ccccc2c1` [Compound 47, 3-[(1S)-3-[bis(2-azaniumylethyl)carbamoyl]-1-{[(1R)-1-carbamoyl-3-phenylpropyl]carbamoyl}propan-1-aminium]quinolin-1-ium tetrachloride], for which the peak level (Cmax) was 8100 ng/mL and the clearance was 28.3 mL/min/kg.

Take `COc1cc(OC(F)(F)F)ccc1CNC(=O)[C@H](CCc1ccccc1)NC(=O)[C@@H](N)CC(=O)N(CCN)CCN` [Compound 233]: the Cmax stood at 4920 ng/mL and the clearance was 118 mL/min/kg.

Take `NCCN(CCN)C(=O)C[C@@H](N)C(=O)N[C@H](CCc1ccccc1)C(=O)Nc1cnc2ccccc2c1` [Compound 44, 3-[(1R)-2-[bis(2-azaniumylethyl)carbamoyl]-1-{[(1R)-1-carbamoyl-3-phenylpropyl]carbamoyl}ethan-1-aminium]quinolin-1-ium tetrachloride]: the Cmax worked out at 2680 ng/mL and the clearance was 24.7 mL/min/kg.

With `CC(C)Oc1ccc(NC(=O)[C@H](CCc2ccccc2)NC(=O)[C@@H](N)CC(=O)N(CCN)CCN)c(F)c1` [Compound 215], the Cmax turned out to be 690 ng/mL and the clearance is 93.3 mL/min/kg.

As to `Cl.Cl.Cl.Cl.NCCN(CCN)C(=O)C[C@H](N)C(=O)N[C@H](C(=O)Nc1cnc2ccccc2c1)C(O)c1ccc(C(F)(F)F)cc1` (stereo partly drawn) [Compound 169, 3-[(1S)-2-[bis(2-azaniumylethyl)carbamoyl]-1-{[(1S)-1-carbamoyl-2-hydroxy-2-[4-(trifluoromethyl)phenyl]ethyl]carbamoyl}ethan-1-aminium]quinolin-1-ium tetrachloride], the maximum concentration (Cmax) is 22900 ng/mL and the clearance was 31.3 mL/min/kg.

Turning to `Cc1ccc(NC(=O)[C@H](CCc2ccccc2)NC(=O)[C@@H](N)CC(=O)N(CCN)CCN)cc1` [Compound 77], the peak concentration (Cmax) worked out at 2960 ng/mL and the clearance was 63.2 mL/min/kg.

In the case of `NCCN(CCN)C(=O)C[C@H](N)C(=O)N[C@@H](CCc1ccccc1)C(=O)Nc1cc(Cl)c(Cl)cc1Cl` [Compound 87], the Cmax was 11000 ng/mL and the clearance is 64.3 mL/min/kg.

Take `Cl.Cl.Cl.Cl.NCCN(CCN)C(=O)C[C@H](N)C(=O)N[C@H](CCc1ccccc1)C(=O)Nc1cnc2ccccc2c1` [Compound 48, 3-[(1S)-2-[bis(2-azaniumylethyl)carbamoyl]-1-{[(1R)-1-carbamoyl-3-phenylpropyl]carbamoyl}ethan-1-aminium]quinolin-1-ium tetrachloride]: the highest level (Cmax) was 7200 ng/mL, the clearance is 26 mL/min/kg and the pharmacokinetic profile result is recorded as “particularly attractive pharmacokinetic profiles”.

As to `NCCN(CCN)C(=O)C[C@H](N)C(=O)N[C@@H](CCc1ccccc1)C(=O)NCc1c(Cl)cccc1Cl` [Compound 224], the highest level (Cmax) was 1590 ng/mL and the clearance was 66.2 mL/min/kg.

In the case of `NCCN(CCN)C(=O)C[C@H](N)C(=O)N[C@@H](CCc1ccccc1)C(=O)NCc1ccc(OC(F)(F)F)cc1` [Compound 95], the Cmax was found to be 1750 ng/mL and the clearance was 30.2 mL/min/kg.

On to `Cc1ccc(C)c(CNC(=O)[C@H](CCc2ccccc2)NC(=O)[C@@H](N)CC(=O)N(CCN)CCN)c1` [Compound 96], for which the Cmax was 3850 ng/mL and the clearance is 51.8 mL/min/kg.

As to `Cl.Cl.Cl.Cl.N[C@@H]1CN(C(=O)CC[C@H](N)C(=O)N[C@H](Cc2ccc(C(F)(F)F)cc2)C(=O)Nc2cnc3ccccc3c2)C[C@@H]1N` [Compound 30, 3-[(1S)-1-{[(1R)-1-carbamoyl-2-[4-(trifluoromethyl)phenyl]ethyl]carbamoyl}-4-[(3R,4S)-3,4-diazaniumylpyrrolidin-1-yl]-4-oxobutan-1-aminium]quinolin-1-ium tetrachloride], the peak level (Cmax) was 7610 ng/mL and the clearance was 56 mL/min/kg.

Consider `Cl.Cl.Cl.Cl.NCCN(CCN)C(=O)C[C@H](N)C(=O)N[C@H](Cc1ccc(C(F)(F)F)cc1)C(=O)Nc1cnc2ccccc2c1` [Compound 359, 3-[(1S)-2-[bis(2-azaniumylethyl)carbamoyl]-1-{[(1R)-1-carbamoyl-2-[4-(trifluoromethyl)phenyl]ethyl]carbamoyl}ethan-1-aminium]quinolin-1-ium tetrachloride], for which the concentration peaked (Cmax) at 5030 ng/mL and the clearance is 48.2 mL/min/kg.

Regarding `Cc1cc(C)c(NC(=O)[C@H](CCc2ccccc2)NC(=O)[C@@H](N)CC(=O)N(CCN)CCN)c(C)c1` [Compound 88], the highest level (Cmax) was 2500 ng/mL and the clearance is 28 mL/min/kg.

As to `NCCN(CCN)C(=O)C[C@H](N)C(=O)N[C@@H](CCc1ccccc1)C(=O)NCc1ccc(F)c(C(F)(F)F)c1` [Compound 102], the peak level (Cmax) was 5050 ng/mL and the clearance was 43 mL/min/kg.

Regarding `NCCN(CCN)C(=O)C[C@H](N)C(=O)N[C@@H](CCc1ccccc1)C(=O)NCc1ccc(Oc2ccccn2)cc1` [Compound 110], the maximum concentration (Cmax) was determined as 1890 ng/mL and the clearance was 91.2 mL/min/kg.

For orientation: Cmax means the maximum level reached in the sampled fluid or tissue. The term clearance denotes a measure of how efficiently the substance is removed, as volume per time.

Values taken from patent US8178490B2, “Polybasic bacterial efflux pump inhibitors and therapeutic uses thereof” (priority 2007, dated 2012).
